Reference: patent US20090215758A1, “Use of 2,5-Disubstituted Thiazol-4-One Derivatives in Drugs” (Gruenenthal GmbH, priority 2005, published 2009)
Structures can show the parent of a compound that is named as a salt.

Columns and labels:
[1] = molecular target: T1, vanilloid receptor 1 (VR1/TRPV1) of the rat species (Rattus norvegicus, UniProt O35433); test: Functional study on vanilloid receptor 1, FLIPR Ca2+ assay in rat dorsal root ganglia cells; assay type: cell-based; details: for inhibition at 10 µM / activation at 10 µM / VR1 (rat) (% inhibition compared to 10 μM CP) / VR1 (rat) (% stimulation compared to 10 μM CP): test compound 10 μM; for inhibition at 10 µM / VR1 (rat) (% inhibition compared to 10 μM CP): 5 min incubation, then 100 nM capsaicin, relative to maximum inhibition with 10 μM capsaicin; for inhibition at 10 µM: read-out: VR1 (rat) (% inhibition compared to 10 μM CP); for activation at 10 µM / VR1 (rat) (% stimulation compared to 10 μM CP): Ca2+ signal relative to 10 μM capsaicin (CP); for activation at 10 µM: read-out: VR1 (rat) (% stimulation compared to 10 μM CP); for EC50: unit inferred
T1 construct: The spinal column is removed from beheaded rats; from tissue; host or cells: primary cells from rat dorsal root ganglia (DRGs)
Method: The agonistic or antagonistic action of the substances to be studied on the vanilloid receptor 1 (VR1/TRPV1) of the rat species can be determined with the following assay. In this assay, the Ca^2+ current through the receptor channel is quantified with the aid of a Ca^2+-sensitive dye (Fluo-4 type, Molecular Probes Europe BV, Leiden the Netherlands) in a fluorescent imaging plate reader (FLIPR, Molecular Devices, Sunnyvale, USA).
Complete medium: 50 ml HAMS F12 Nutrient Mixture (Gibco Invitrogen GmbH, Karlsruhe, Germany) with 10% by volume of FCS (fetal calf serum, Gibco Invitrogen GmbH, Karlsruhe, Germany, heat-inactivated);
2 mM L-glutamine (Sigma, Munich, Germany);
1% by weight of AA solution (antibiotic/antimycotic solution, PAA, Pasching, Austria) and 25 ng/ml of NGF medium (2.5 S, Gibco Invitrogen GmbH, Karlsruhe, Germany)
Cell culture plate: poly-D-lysine-coated, black 96-hole plates with a clear bottom (96 well black/clear plate, BD Biosciences, Heidelberg, Germany) are additionally coated with laminin (Gibco Invitrogen GmbH, Karlsruhe, Germany) by diluting laminin to a concentration of 100 μg/ml with PBS (Ca—Mg-free PBS, Gibco Invitrogen GmbH, Karlsruhe, Germany). Aliquots having a concentration of 100 μg/ml of laminin are withdrawn and stored at −20° C. The aliquots are diluted with PBS in a ratio of 1:10 to 10 μg/ml of laminin and in each case 50 μl of the solution are pipetted into a well of the cell culture plate. The cell culture plates are incubated at 37° C. for at least two hours, the supernatant solution is removed by suction and the wells are each washed twice with PBS. The coated cell culture plates are stored with supernatant PBS which is not removed until directly before the application of the cells.
The spinal column is removed from beheaded rats and placed directly into cold HBSS buffer (Hank's buffered saline solution, Gibco Invitrogen GmbH, Karlsruhe, Germany), i.e. placed in an ice bath, which has been admixed with 1% by volume of an AA solution (antibiotic/antimycotic solution, PAA, Pasching, Austria). The spinal column is severed longitudinally and removed from the spinal canal together with fasciae. Subsequently, the dorsal root ganglia (DRGs) are removed and in turn stored in cold HBSS buffer admixed with 1% by volume of an AA solution. The DRGs freed completely of blood residues and spinal nerves are in each case transferred to 500 μl of cold type 2 collagenase (PAA, Pasching, Austria) and incubated at 37° C. for 35 minutes. […] After complete incubation, the enzyme solution is cautiously pipetted off and the remaining DRGs are each suspended with 500 μl of complete medium.
The DRGs are each suspended repeatedly, drawn through cannulas No. 1, No. 12 and No. 16 by means of a syringe and transferred to 50 ml Falcon tubes which are made up to 15 ml with complete medium. The contents of each Falcon tube are in each case filtered through a 70 μm Falcon filter insert and centrifuged at 1200 revolutions and room temperature for 10 minutes. The resulting pellet is in each case taken up in 250 μl of complete medium and the cell count is determined.
The number of cells in the suspension is adjusted to 3 times 10^5 per ml and in each case 150 μl of this suspension are added to one well of the cell culture plates coated as described above.
Subsequently, the cells are laden with 2 μM Fluo-4 and 0.01% by volume of Pluronic F127 (Molecular Probes Europe BV, Leiden, the Netherlands) in HBSS buffer (Hank's buffered saline solution, Gibco Invitrogen GmbH, Karlsruhe, Germany) at 37° C. for 30 min, washed 3× with HBSS buffer and, after a further incubation of 15 minutes, used in the FLIPR assay at room temperature for Ca^2+ measurement. The Ca^2+-dependent fluorescence is measured before and after addition of substances (λex=488 nm, λem=540 nm). The quantification is effected by the measurement of the highest fluorescence intensity (FC, fluorescence counts) over the time.

VR1 (human) = molecular target: T2, VR1 (human) (Homo sapiens, UniProt Q8NER1); test: Functional study on vanilloid receptor (VR1), FLIPR Ca2+ assay in CHO K1 cells stably transfected with the VR1 gene; assay type: cell-based; details: for inhibition at 10 µM / activation at 10 µM: CHO-K1, test compound 10 μM; for inhibition at 10 µM / VR1 (human) (% inhibition compared to 10 μM CP): 5 min incubation, then 100 nM capsaicin, compared to 10 μM CP; for activation at 10 µM / VR1 (human) (% stimulation compared to 10 μM CP): Ca2+ signal relative to 10 μM capsaicin (CP); for activation at 10 µM: read-out: VR1 (human) (% stimulation compared to 10 μM CP); for EC50: unit inferred; for VR1 (human) (% inhibition compared to 10 μM CP) / VR1 (human) (% stimulation compared to 10 μM CP): test compound 10 μM
T2 construct: expressed in transfected cells; host or cells: CHO K1 cells (ECACC), stably transfected
Description: The agonistic or antagonistic action of the substances to be tested on vanilloid receptor (VR1) can also be determined with the assay which follows. In this assay, the Ca^2+ current through the channel is quantified with the aid of a Ca^2+-sensitive dye (Fluo-4 type, Molecular Probes, Europe BV, Leiden, the Netherlands) in a fluorescent imaging plate reader (FLIPR, Molecular Devices, Sunnyvale, USA).
Chinese hamster ovary cells (CHO K1 cells, European Collection of Cell Cultures (ECACC) Great Britain) are transfected stably with the VR1 gene. For functional studies, these cells are plated out onto poly-D-lysine-coated black 96-well plates with a clear bottom (BD Biosciences, Heidelberg, Germany) in a density of 25 000 cells/well. The cells are incubated overnight at 37° C. and 5% CO2 in a culture medium (Ham's Nutrient Mixture F12, 10% by volume of FCS (fetal calf serum), 18 μg/ml of L-proline). The next day, the cells are incubated with Fluo-4 (Fluo-4 2 μM, Pluronic F127 0.01% by volume, Molecular Probes in HBSS (Hank's buffered saline solution), Gibco Invitrogen GmbH, Karlsruhe, Germany) at 37° C. for 30 minutes. Subsequently, the plates are washed 3 times with HBSS buffer and, after a further incubation of 15 minutes at room temperature, used for Ca^2+ measurement in FLIPR. The Ca^2+-dependent fluorescence is measured before and after addition of the substances to be studied (wavelength λex=488 nm, λem=540 nm). The quantification is effected by measuring the highest fluorescence intensity (FC, fluorescence counts) over the time.
The FLIPR protocol consists of 2 substance additions. First, the substances to be tested (10 μM) are pipetted onto the cells and the Ca current is compared with the control (capsaicin 10 μM) (% activation based on the Ca^2+ signal after addition of 10 μM capsaicin). After incubation for 5 minutes, 100 nM capsaicin is applied and the current of Ca^2+ is likewise determined.

T1 sequence (O35433 whole entry): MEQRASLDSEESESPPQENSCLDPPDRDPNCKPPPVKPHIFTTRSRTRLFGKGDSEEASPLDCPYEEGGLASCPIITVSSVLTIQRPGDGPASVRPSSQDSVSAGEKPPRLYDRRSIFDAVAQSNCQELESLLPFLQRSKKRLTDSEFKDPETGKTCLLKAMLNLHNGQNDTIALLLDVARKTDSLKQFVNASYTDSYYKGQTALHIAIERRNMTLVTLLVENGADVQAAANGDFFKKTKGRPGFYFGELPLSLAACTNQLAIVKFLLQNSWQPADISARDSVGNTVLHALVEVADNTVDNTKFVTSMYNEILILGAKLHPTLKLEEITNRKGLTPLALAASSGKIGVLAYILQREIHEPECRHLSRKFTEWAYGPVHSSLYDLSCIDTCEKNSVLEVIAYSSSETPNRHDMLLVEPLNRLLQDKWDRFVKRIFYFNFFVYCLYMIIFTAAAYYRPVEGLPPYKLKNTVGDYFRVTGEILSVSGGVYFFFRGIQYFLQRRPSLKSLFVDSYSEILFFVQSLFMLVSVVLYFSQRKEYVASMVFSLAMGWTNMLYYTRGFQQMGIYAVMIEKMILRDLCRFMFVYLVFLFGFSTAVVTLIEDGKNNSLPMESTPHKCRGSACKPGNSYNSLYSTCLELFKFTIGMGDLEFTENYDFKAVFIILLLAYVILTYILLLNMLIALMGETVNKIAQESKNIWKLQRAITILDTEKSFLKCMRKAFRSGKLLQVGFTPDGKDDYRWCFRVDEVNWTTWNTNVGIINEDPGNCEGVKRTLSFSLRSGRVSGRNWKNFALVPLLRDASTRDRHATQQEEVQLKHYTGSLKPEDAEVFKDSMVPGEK
T2 sequence (Q8NER1 whole entry): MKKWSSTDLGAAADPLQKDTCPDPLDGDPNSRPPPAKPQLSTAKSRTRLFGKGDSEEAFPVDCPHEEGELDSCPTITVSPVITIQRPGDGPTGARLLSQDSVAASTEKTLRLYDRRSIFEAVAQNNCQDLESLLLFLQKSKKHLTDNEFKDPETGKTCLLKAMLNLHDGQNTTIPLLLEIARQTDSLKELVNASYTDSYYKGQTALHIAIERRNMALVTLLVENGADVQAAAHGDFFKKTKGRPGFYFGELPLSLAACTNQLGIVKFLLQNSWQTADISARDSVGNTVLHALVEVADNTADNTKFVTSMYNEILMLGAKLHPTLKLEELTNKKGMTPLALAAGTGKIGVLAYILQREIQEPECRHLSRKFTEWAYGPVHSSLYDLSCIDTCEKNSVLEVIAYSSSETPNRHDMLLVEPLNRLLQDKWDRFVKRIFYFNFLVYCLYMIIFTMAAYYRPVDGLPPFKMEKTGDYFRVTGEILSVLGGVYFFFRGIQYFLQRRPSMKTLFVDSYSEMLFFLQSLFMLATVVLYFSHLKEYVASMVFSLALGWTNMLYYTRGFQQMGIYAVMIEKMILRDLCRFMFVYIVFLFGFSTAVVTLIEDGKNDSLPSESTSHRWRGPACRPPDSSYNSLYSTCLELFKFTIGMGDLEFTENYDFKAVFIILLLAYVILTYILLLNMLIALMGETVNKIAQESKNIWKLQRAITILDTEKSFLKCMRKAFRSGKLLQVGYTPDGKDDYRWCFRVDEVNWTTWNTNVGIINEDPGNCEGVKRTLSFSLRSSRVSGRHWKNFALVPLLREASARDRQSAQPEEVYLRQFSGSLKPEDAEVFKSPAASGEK

SMILES	inhibition at 10 µM [1] [%]	activation at 10 µM [1] [%]	EC50 [1] [µM]	inhibition at 10 µM (VR1 (human)) [%]	activation at 10 µM (VR1 (human)) [%]	EC50 (VR1 (human)) [µM]	VR1 (rat) (% inhibition compared to 10 μM CP) [1] [%]	VR1 (rat) (% stimulation compared to 10 μM CP) [1] [%]	VR1 (human) (% inhibition compared to 10 μM CP) (VR1 (human)) [%]	VR1 (human) (% stimulation compared to 10 μM CP) (VR1 (human)) [%]
O=C1N=C(N2CCOCC2)SC1=CC=Cc1ccccc1 [Example 189, 2-morpholin-4-yl-5-(3-phenylallylidene)thiazol-4-one hydrobromide]	5.61	6.64	> 25	8.14	11.2	> 50	–	–	–	–
CC(C)c1ccc(C=C2SC(N3CCOCC3)=NC2=O)cc1 [Example 135, 5-(4-isopropylbenzylidene)-2-morpholin-4-ylthiazol-4-one]	–	–	–	–	–	–	87.60	79.68	84.29	85.02
O=C1N=C(N2CCOCC2)SC1=CC=CSc1ccccc1 [Example 12, 2-morpholin-4-yl-5-(3-phenylsulfanylallylidene)thiazol-4-one]	68.4	54	–	54.3	55.4	–	–	–	–	–
O=C1N=C(N2CCCCC2)SC1=CC=Cc1ccccc1 [Example 191, 5-(3-phenylallylidene)-2-piperidin-1-ylthiazol-4-one hydrobromide]	17.6	-0.17	> 25	8.04	15.8	> 50	–	–	–	–
CN(C)c1ccc(C=C2SC(N3CCOCC3)=NC2=O)cc1 [Example 235, 5-(4-dimethylaminobenzylidene)-2-morpholin-4-ylthiazol-4-one]	13.7	123	–	44.5	73.9	–	–	–	–	–
O=C1N=C(N2CCSCC2)SC1=Cc1cccc(C(=O)N2CCN(c3nsnc3Cl)CC2)c1 [Example 115, 5-{3-[4-(4-chloro-[1,2,5]thiadiazol-3-yl)piperazine-1-carbonyl]benzylidene}-2-thiomorpholin-4-ylthiazol-4-one]	95.8	128	–	66.2	68.2	–	–	–	–	–
Cc1ccc(N2CCN(C3=NC(=O)C(=Cc4ccc(C(C)(C)C)cc4)S3)CC2)nn1 [Example 154, 5-(4-tert-butylbenzylidene)-2-[4-(6-methylpyridazin-3-yl)piperazin-1-yl]thiazol-4-one]	54.1	3.99	–	34.2	6.56	–	–	–	–	–
CCN(CC)C1=NC(=O)C(=Cc2cccc(C(F)(F)F)c2)S1 [Example 214, 2-diethylamino-5-(3-trifluoromethylbenzylidene)thiazol-4-one]	50.1	13.7	–	56.7	6.08	–	–	–	–	–
O=C1N=C(N2CCSCC2)SC1=Cc1ccccc1C(F)(F)F [Example 22, 2-thiomorpholin-4-yl-5-(2-trifluoromethylbenzylidene)thiazol-4-one]	88.1	116	8.48	80.8	64	9.06	–	–	–	–
O=C1N=C(N2CCOCC2)SC1=Cc1cccc2ccccc12 [Example 209, 2-morpholin-4-yl-5-naphthalen-1-ylmethylenethiazol-4-one]	34.7	40	14.8	5.47	9.44	28.4	–	–	–	–
O=C1N=C(N2CCOCC2)SC1=Cc1ccc(Oc2ccccc2)cc1 [Example 17, 2-morpholin-4-yl-5-(4-phenoxybenzylidene)thiazol-4-one]	91.1	120	6.36	19.6	46	17.8	–	–	–	–
O=C1N=C(N2CCOCC2)SC1=Cc1ccc(Br)cc1 [Example 232, 5-(4-bromobenzylidene)-2-morpholin-4-ylthiazol-4-one]	96.2	80.4	–	43.8	29.2	–	–	–	–	–
Cc1ccc(C=C2SC(N3CCCC3)=NC2=O)cc1 [Example 215, 5-(4-methylbenzylidene)-2-pyrrolidin-1-ylthiazol-4-one]	4.47	2.14	–	49.8	3.64	–	–	–	–	–
Br.CC(C)c1ccc(C=C2SC(N3CCOCC3)=NC2=O)cc1 [Example 179, 5-(4-isopropylbenzylidene)-2-morpholin-4-ylthiazol-4-one hydrobromide]	–	–	–	–	–	–	38.36	41.89	30.72	5.04
O=C1N=C(N2CCOCC2)SC1=Cc1cccc(C(F)(F)F)c1 [Example 206, 2-morpholin-4-yl-5-(3-trifluoromethylbenzylidene)thiazol-4-one]	–	–	–	–	–	–	102.30	76.51	95.06	77.26
COc1cc(C=C2SC(N3CCSCC3)=NC2=O)ccc1O [Example 39, 5-(4-hydroxy-3-methoxybenzylidene)-2-thiomorpholin-4-ylthiazol-4-one]	51	31.2	–	23.7	18.9	–	–	–	–	–
